Source: BigSolDB 2.1

C=CC(=O)Nc1cc(Nc2nccc(-c3cn(C)c4ccccc34)n2)c(OC)cc1N(C)CCN(C)C
Conditions	solubility (mole fraction)
in PEG-400, 298.2 K	0.00214
in PEG-400, 303.2 K	0.00307
in PEG-400, 308.2 K	0.00421
in PEG-400, 313.2 K	0.00583
in PEG-400, 318.2 K	0.00733

solubility (mole fraction)
Conditions	in dichloromethane	in ethanol	in ethyl acetate	in isopropyl myristate	in propylene glycol	in transcutol	in water
298.2 K	0.000939	0.000472	0.00129	0.000794	0.000766	0.00144	1.85e-05
303.2 K	0.0014	0.000703	0.00174	0.00122	0.00106	0.0022	2.24e-05
308.2 K	0.00196	0.000989	0.00241	0.00186	0.00143	0.00337	2.72e-05
313.2 K	0.0028	0.00131	0.0031	0.00263	0.00206	0.0046	3.18e-05
318.2 K	0.00366	0.00176	0.00398	0.00344	0.00265	0.00638	3.69e-05
